Results taken from US20220273673A1, “BONE-BINDING COMPOUNDS” (BRIGHAM YOUNG UNIVERSITY, priority 2019, published 2022).

Key:
[1] = Hydroxyapatite (HA) binding assay, HPLC of supernatant; details: after 60 minutes of incubation with HA
Description: To analyze the reduction in peak height due to HA binding, 100 μL of supernatant was withdrawn at predetermined time points and analyzed by HPLC.

[2] = test system: cultured cells; details: Schindeler et al. 2015; cited from earlier work
[3] = test system: J774.2 monocyte macrophage lineage cells; experiment: In vitro protein prenylation assay (mevalonate pathway); type: cell-based; details: 25 μM or equimolar concentration; 24 hours
Description: The assay used was as described by Ali N et al., Small GTPases 6(4):202-11 (2015). Briefly, this involved incubation of cells with the compounds for 24 hours at increasing doses of drugs and then an in vitro prenylation assay being performed on protein extracts. Immunoblotting (western blotting) was carried out to identify an exemplar unprenylated protein, with a band indicating drug activity affecting the mevalonate pathway.

[4] = test system: MC3T3-E1 cells; experiment: Alkaline phosphatase activity assay (p-nitrophenyl phosphate) in osteoblasts; type: cell-based; details: 5 μM; osteogenic media; without rhBMP-2
Description: A p-nitrophenyl phosphate assay was performed for alkaline phosphatase activity (Sigma-Aldrich) and normalized to day-3 cells grown in osteogenic media and α-MEM media. Assays were performed in triplicate with two independent repeats.

For CCCCCN(CCCCC)CCC[C@@H](C)[C@H]1CC[C@H]2[C@@H]3[C@H](OCCCN)C[C@@H]4C[C@H](OCCCN)CC[C@]4(C)[C@H]3CC(OCCCN)[C@]12C (some centres unmarked) [CSA-90], the “Reduction in peak height on HA incubation (in words)” value [1] is listed as “no, or very low, reduction in peak height”, the “Pro-osteogenic activity, potentiation of rhBMP-2” value [2] is listed as “pro-osteogenic activity” and the “Effect on protein prenylation (unprenylated protein band, western blot)” value [3] is listed as “did not induce a noticeable or comparable protein prenylation effect”. The “Alkaline phosphatase expression / osteogenic potential, compound alone” value [4] was “increased alkaline phosphatase expression”.

With NCCCC(O)(P(=O)(O)O)P(=O)(O)O [alendronate] the “Effect on protein prenylation (unprenylated protein band, western blot)” value [3] was “potent effect on protein prenylation”.
